The record followed here is patent US20090047221A1 (NIPRI LIMITED, priority 2004, published 2009).

What all share (type): cell-based
One assay concerns MCF-7. Put plainly: MTT assay (anti-proliferative activity). As to conditions: 96 h continual exposure, read-out: IC 50 MCF-7.
The test system of the next assay is SkMel28. Put plainly: MTT assay (anti-proliferative activity). As to conditions: 96 h continual exposure, read-out: IC 50 SkMel28.
The next assay deals with MalMe3M. Briefly: MTT assay (anti-proliferative activity). As to conditions: 96 h continual exposure, read-out: IC 50 MalMe3M. (In general: Tetrazolium assays rely on reduction of a dye to a coloured formazan, in cell work by metabolically active cells.)
In a further assay the test system is MDA-MB-468. Put plainly: MTT assay (anti-proliferative activity). As to conditions: 96 h continual exposure, read-out: IC 50 MDA-MB-468.
In assay [1] the test system is breast cancer (MDA-MB-468 and MCF-7 cell lines) and melanoma cell lines (MalMe3, SkMe128). Briefly: Cell cycle analysis by flow cytometry (propidium iodide); apoptosis as cells in sub G0/G1 (pre G0) peak. Conditions: following treatment with IC70 concentration of compound. As to the method:
Assessment of cell cycle analysis was performed using propidium iodide staining of cells and subsequent analysis on a Beckton Dickinson flow cytometer. […] The following day the medium was removed and replaced with 5 ml medium per flask containing the appropriate drug concentrations to be tested. 40 mg/ml stock drug solutions in DMSO were stores at −20° C. and on the day off drug treatment working solutions of 4 mg/ml were prepared in medium from which the final drug dilutions were prepared. Cells were maintained in an incubator (37° C., 5% CO2) for up to 96 h post treatment. After 24, 48, 72 or 96 h time points the medium from each flask was collected, stored on ice, and the remaining cells in the flasks were trypsinised by aiding 1 ml trypsin-EDTA solution to each flask. Cells were replaced into the incubator for 10 min to allow them to detach from the plastic plate. The cells in each flask were collected by adding the appropriate medium removed from each flask back to the corresponding flask and then placing medium containing both the attached and floating cells into a 15 ml tube. Cells were centrifuged at 4° C. for 5 min at 1500 rpm and the supernatant removed from each tube. The remaining cells were washed twice in ice cold PBS and then fixed in ice cold methanol overnight at −20° C. On the day of analysis of cells each tube was centrifuged at 4° C. for 5 min at 1500 rpm and the methanol removed and the cells washed twice in ice cold PBS. 20 μl propidium iodide solution (1 mg/ml) and 20 μl RNase A (10 mg/ml solution) were added to 1 ml PBS per tube and the cells were incubated for 30 min at 37° C. Cells were analysed on the flow cytometer and cell cycle changes were assessed.

The subject of a further assay is PC3. Put plainly: MTT assay (anti-proliferative activity). An excerpt: (§1) The MTT assay was used initially to determine the anti-proliferative activity of the test compounds. In the MTT assay a yellow thiazolyl blue tetrazolium bromide salt (MTT) is reduced, in metabolically active cells, to form insoluble purple formazan crystals which are solubilised by the addition of dimethyl sulphoxide (DMSO). Absorbance readings can then be determined spectrophotometrically and a relationship established between control untreated cells and drug treated cells enabling the quantification of anti-proliferative changes as a result of drug treatment (Mosmann, 1983).
(§2) Wells containing medium only were used as blanks. Following the attachment period, cells were treated with appropriate drug concentrations (20 μl added per well). 40 mg/ml stock drug solutions, in DMSO, were stored at −20° C. and on the day of drug treatment working solutions of 4 mg/ml were prepared in medium which was further diluted to achieve final drug dilution volumes of 20 μl. Initial screening was determined over a concentration range of 1-200 μg/ml. For potent compounds the assay was repeated over a narrower concentration range to determine accurate IC50 values. Cells were exposed to drug for 96 h continual exposure (37° C., 5% CO2). Following the 96 h incubation, 50 μl MTT solution (1 g MTT/500 ml PBS) was added per well and the plates were further incubated for 4 h (37° C., 5% CO2). After incubation the MTT and medium was removed from the wells and 100 μl DMSO added per well. Plates were agitated on an orbital mixer platform (Stuart Scientific) for 10 minutes. Absorbance was measured at 570 nm on a Biotrak II (Amersham Bioscience) plate reader. IC50 values were calculated comparing control and drug treated cells.

The test system of another assay is HT29. Briefly: MTT assay (anti-proliferative activity).
Source text: as §1, §2

Another assay concerns LNCAP. Put plainly: MTT assay (anti-proliferative activity).
Source text: as §1, §2

Another assay concerns RKO. Briefly: MTT assay (anti-proliferative activity).
Source text: as §1, §2

In another assay the test system is H23. Put plainly: MTT assay (anti-proliferative activity).
Source text: as §1, §2

For the next assay, the system named is ZR-75-1. Put plainly: MTT assay (anti-proliferative activity).
Source text: as §1, §2

In the next assay the test system is HCT−/−. Put plainly: MTT assay (anti-proliferative activity).
Source text: as §1, §2

Another assay has as its system PNT2. Put plainly: MTT assay (anti-proliferative activity).
Source text: as §1, §2

In the next assay the test system is HCT+/+. Briefly: MTT assay (anti-proliferative activity).
Source text: as §1, §2

For the compound `CC1(C)Cc2ccc(C(=O)N[C@@H](Cc3ccccc3)C(=O)O)c(O)c2C(=O)O1` [ALM-74, L-Phenyl Alanine Amide of Compound ALM-73], the IC50 came out at 2.21 µM with MCF-7, 11.7 µM in the assay with SkMel28, 7.8 µM with MalMe3M and 1.83 µM in the assay on MDA-MB-468. Also, the “% Cells in Pre G0 phase of Cell Cycle” value in assay [1] was found to be 34.4%.

On to `CCCCCCNC(=O)c1ccc2c(c1O)C(=O)OC(C)C2` (racemic) [ALM-49, Hexyl Amide], for which the IC50 in the assay with MCF-7 was determined as 26.2 µM; with SkMel28, 105 µM; in the assay on MalMe3M it was 65.5 µM; in the assay on MDA-MB-468, 3.3 µM. Also, in assay [1], the “% Cells in Pre G0 phase of Cell Cycle” value amounted to 14.1%.

As to `CC(C)CC(NC(=O)c1ccc2c(c1O)C(=O)OC(C)C2)C(=O)OC(C)(C)C` (mixture of isomers) [ALM-55, Leucine Tert-Butyl Ester Amide], the IC50 with MCF-7 is 43.4 µM; in the assay with SkMel28, 79.2 µM; in the assay with MalMe3M, 22.9 µM; with MDA-MB-468 it was 12.8 µM. Also, the “% Cells in Pre G0 phase of Cell Cycle” value in assay [1] stood at 3.4%.

Consider `CCCCC/C=C\C/C=C\C/C=C\CCCCCOC(=O)c1ccc2c(c1O)C(=O)OC(C)C2` (racemic) [ALM-43, γ-Linolenyl Ester], for which the IC50 was 9.6 µM in the assay on PC3; 18.7 µM in the assay with HT29; 10.7 µM in the assay with LNCAP; 10.7 µM in the assay on RKO; 2.1 µM in the assay with H23; 6.4 µM in the assay on ZR-75-1. For the same compound, the IC50 was 42.7 µM with HCT−/−; 5.3 µM in the assay with PNT2; 21.3 µM in the assay with HCT+/+; 2.3 µM in the assay on MCF-7; 21.3 µM in the assay with SkMel28; 23.5 µM in the assay with MalMe3M. Besides, in the assay with MDA-MB-468, the IC50 was 4.3 µM. In [1], the “% Cells in Pre G0 phase of Cell Cycle” value turned out to be 11.8%.
